Values joined by “and” are separate entries in the source; they are usually repeats but may differ in a detail not shown here. Identical values can stand only once. Counter-ions that a name gives are not always drawn.
Columns and labels:
[1] = system: KG-1a (human myeloid leukemia); assay: Alamar blue cytotoxicity assay, 72 h, KG-1a; type: cell-based; settings: 72 h incubation
Method: (§1) The HepG2 (human hepatocellular carcinoma), KG-1a (human myeloid leukemia), HCT116 (human colon carcinoma), and MRC-5 (human lung fibroblast) cell lines were obtained from the American Type Culture Collection (ATCC, Manassas, VA, USA) and were cultured as recommended by the American Type Culture Collection (ATCC) animal culture guide. All the cell lines were tested for mycoplasma via a mycoplasma stain kit (Sigma-Aldrich) to validate the use of cells that were free from contamination.
For the cytotoxicity assay, cell viability was quantified via the Alamar blue method, as previously described. For all the experiments, the cells were plated in 96-well plates. The chemical constituents evaluated varied in purity between 90% and 99.8%, which was determined on the basis of the relative integrals of the signals of the constituents in relation to the signals of the impurities contained. […] The chemical constituents were dissolved in dimethyl sulfoxide (DMSO, Vetec Química Fina Ltda., Duque de Caxias, RJ, Brazil), added to each well, and incubated for 72 h. […] At the end of the treatment, 20 µL of a stock solution (0.312 mg/mL) of resazurin (Sigma-Aldrich Co.) was added to each well. The absorbances at 570 nm and 600 nm were measured via a SpectraMax 190 Microplate Reader (Molecular Devices, Sunnyvale, CA, USA). […]

[2] = system: HCT116 (human colon carcinoma); assay: Alamar blue cytotoxicity assay, 72 h, HCT116; type: cell-based; settings: for IC50: Homo sapiens, HCT-116, HCT116, Alamar blue, 72 h incubation; for Selectivity index (SI): SI = IC50 [noncancerous cells MRC-5]/IC50 [HCT116]
Method: (§2) The in vitro cytotoxic activities of the isolated compounds 1–9 were evaluated against the cancer cell lines HepG2 (human hepatocellular carcinoma), KG-1a (human myeloid leukemia), and HCT116 (human colon carcinoma), and the noncancerous cell line MRC-5 (human lung fibroblast) via the Alamar blue assay after 72 h of incubation.
as §1
(§3) For the cytotoxicity assay, cell viability was quantified via the Alamar blue method, as previously described. For all the experiments, the cells were plated in 96-well plates. The chemical constituents evaluated varied in purity between 90% and 99.8%, which was determined on the basis of the relative integrals of the signals of the constituents in relation to the signals of the impurities contained. Most of the constituents had purities greater than 95%, except for constituents 4 and 5, which had purities of approximately 90%. The chemical constituents were dissolved in dimethyl sulfoxide (DMSO, Vetec Química Fina Ltda., Duque de Caxias, RJ, Brazil), added to each well, and incubated for 72 h. […] At the end of the treatment, 20 µL of a stock solution (0.312 mg/mL) of resazurin (Sigma-Aldrich Co.) was added to each well. The absorbances at 570 nm and 600 nm were measured via a SpectraMax 190 Microplate Reader (Molecular Devices, Sunnyvale, CA, USA). The half-inhibitory concentration (IC50) was obtained via nonlinear regression with 95% confidence intervals (CIs 95%) via the software GraphPad Prism 8 (Intuitive Software for Science; San Diego, CA, USA).

[3] = system: HepG2 (human hepatocellular carcinoma); assay: Alamar blue cytotoxicity assay, 72 h, HepG2; type: cell-based; settings: for IC50: Homo sapiens, HepG2, Alamar blue, 72 h incubation
Method: as §2, §1, §3

[4] = system: MRC-5 (human lung fibroblast); assay: Alamar blue cytotoxicity assay, 72 h, noncancerous MRC-5; type: cell-based; settings: MRC5, MRC-5 noncancerous cells, 72 h incubation
Method: as §2, §1, §3

[5] = design: method as in ref 41 = [41]; 41. Osorio D.E.J. Montoya P.G.L. Muñoz D.K. Arango A.G.J. Actividad antiplasmodial de alcaloides aporfínicos de Rollinia pittieri Y Pseudomalmea boyacana (Annonaceae) Vitae 2006 13 49 54; settings: cited from earlier work
human cancer cells = system: human cancer cells; design: method as in ref 41 = [41]; 41. Osorio D.E.J. Montoya P.G.L. Muñoz D.K. Arango A.G.J. Actividad antiplasmodial de alcaloides aporfínicos de Rollinia pittieri Y Pseudomalmea boyacana (Annonaceae) Vitae 2006 13 49 54; settings: cited from earlier work
[6] = system: Akt activation in anaplastic human thyroid cancer cells; design: method as in PMID 38139812; settings: cited from earlier work
[7] = system: human colon cancer cell lines and cancer stem cells (Wnt/β-catenin); design: method as in PMID 37656375; settings: through the inhibition of Wnt/β-catenin; cited from earlier work
[8] = system: CAOV-3 ovarian cancer cells; design: method as in PMID 25792804; settings: CAOV-3 cells, mitochondrial pathway, activation of caspase-3 and caspase-9; cited from earlier work
cancer cells = system: cancer cells; design: method as in PMID 25065531, PMID 33290909, PMID 15540220, PMID 12951096, PMID 35597316; settings: cited from earlier work
HL-60 leukemia cells = system: HL-60 leukemia cells; design: method as in ref 47 Kim et al.; settings: HL-60 cells, via p38 MAPK pathway; ref 47 Kim et al.; cited from earlier work
[9] = design: method as in PMID 25065531, PMID 33290909, PMID 15540220, PMID 12951096, PMID 35597316; settings: cited from earlier work

| Compound | IC50 [2] | IC50 [3] | IC50 [4] | further results |
| --- | --- | --- | --- | --- |
| COc1cccc2c1C(=O)c1c(O)c3c(c(O)c1C2=O)C[C@@](O)(C(=O)CO)C[C@@H]3O[C@H]1C[C@H](N)[C@H](O)[C@H](C)O1 [Doxorubicin, doxorubicin hydrochloride, reference compound] | 0.2 µg/mL and 360 nM | 0.04 µg/mL and 70 nM | 1.42 µg/mL and 2.61 µM | IC50 [1]: 0.22 µg/mL and 400 nM; Selectivity index (SI) [2]: 7.10; Selectivity index (SI) ([3]; SI = IC50 [noncancerous cells MRC-5]/IC50 [HepG2]): 35.50 |
| COc1c(O)c2c3c(c1OC)CCN=C3C(C)(C)c1cc(O)ccc1-2 [Dihydromelosmine (5), dihydromelosmine] | > 25 µg/mL and > 73.7 µM | > 25 µg/mL and > 73.7 µM | > 25 µg/mL and > 73.7 µM | – |
| COc1c2c3c(c(OC)c1OC)-c1ccc(O)cc1C(C)(C)C3=NCC2 [9-hydroxyiguattescine (4), 9-hydroxyiguattescine] | > 25 µg/mL and > 70.7 µM | > 25 µg/mL and > 70.7 µM | > 25 µg/mL and > 70.7 µM | – |
| COc1c(O)c2c3c(nccc3c1OC)C(C)(C)c1cc(O)ccc1-2 [Melosmine (3), melosmine] | 16.8 µg/mL and 49.7 µM | – | 23.7 µg/mL and 70.3 µM | antimalarial activity [5]: antimalarial agent; Selectivity index (SI) [2]: 1.41; cytotoxicity to human cancer cells (human cancer cells): low cytotoxicity |
| COc1cc2ccnc3c2c(c1OC)-c1ccccc1C3=O [Lysicamine (6), lysicamine] | 6.64 µg/mL and 22.8 µM | – | 17.2 µg/mL and 59.2 µM | Selectivity index (SI) [2]: 2.60; effect on Akt activation [6]: inhibit Akt activation; effect on colon cancer cell lines and cancer stem cells [7]: suppress human colon cancer cell lines and cancer stem cells |
| O=C1c2ccccc2-c2c3c(cc4ccnc1c24)OCO3 [liriodenine] | – | – | – | apoptosis [8]: caused apoptosis |
| COc1c2c3c(c(OC)c1OC)-c1ccc(O)cc1C(C)(O)C3=NCC2 (stereo not drawn) [Guattouregidine (8), guattouregidine] | > 25 µg/mL and > 73.2 µM | > 25 µg/mL and > 73.2 µM | > 25 µg/mL and > 73.2 µM | – |
| COc1c(O)c2c3c(c1OC)CCN[C@@H]3Cc1ccccc1-2 [Isopiline (1), isopiline] | > 25 µg/mL and > 84.1 µM | – | > 25 µg/mL and > 84.1 µM | – |
| C=C[C@@]1(C)CC=C2C(CCC3[C@](C)(C(=O)O)CCC[C@@]23C)C1 (stereo partly drawn) [Acanthoic acid (7), acanthoic acid] | 21.2 µg/mL and 70.2 µM | 14.6 µg/mL and 48.4 µM | > 25 µg/mL and > 82.7 µM | cytotoxicity to cancer cells (cancer cells): low cytotoxicity; apoptotic cell death (HL-60 leukemia cells): causing apoptotic cell death; anti-inflammatory activity [9]: anti-inflammatory activity |
| COc1c2c3c(c(OC)c1OC)-c1ccccc1CC3NCC2 (stereo not drawn) [O-Methylisopiline (2), O-methylisopiline] | > 25 µg/mL and > 80.3 µM | – | > 25 µg/mL and > 80.3 µM | – |
| COc1c(O)c2c3c(nccc3c1OC)C(C)(C)c1cc(O)ccc1O2 [Gouregine (9), gouregine] | – | > 25 µg/mL and > 70.7 µM | > 25 µg/mL and > 70.7 µM | IC50 [1]: > 25 µg/mL and > 70.7 µM |

From article PMC11357160, “Gouregine, an α-Gem-Dimethyltetradehydrocularine Alkaloid, and Other Aporphinoid Alkaloids from the Bark of Guatteria olivacea (Annonaceae) and Their In Vitro Cytotoxic Activities” (Molecules, 2024)
